Experimental data published in US8637237B2, “Methods, compositions, and systems for the identification of species-specific or developmental stage-specific insecticides” (The University of North Carolina at Greensboro, priority 2003, dated 2014).

Target: T1, VP16dEcR/RXR (Drosophila melanogaster, UniProt P34021)
T1 construct: expressed in transfected cells; host or cells: CHO
T1 sequence (P34021 252-878 limits assumed): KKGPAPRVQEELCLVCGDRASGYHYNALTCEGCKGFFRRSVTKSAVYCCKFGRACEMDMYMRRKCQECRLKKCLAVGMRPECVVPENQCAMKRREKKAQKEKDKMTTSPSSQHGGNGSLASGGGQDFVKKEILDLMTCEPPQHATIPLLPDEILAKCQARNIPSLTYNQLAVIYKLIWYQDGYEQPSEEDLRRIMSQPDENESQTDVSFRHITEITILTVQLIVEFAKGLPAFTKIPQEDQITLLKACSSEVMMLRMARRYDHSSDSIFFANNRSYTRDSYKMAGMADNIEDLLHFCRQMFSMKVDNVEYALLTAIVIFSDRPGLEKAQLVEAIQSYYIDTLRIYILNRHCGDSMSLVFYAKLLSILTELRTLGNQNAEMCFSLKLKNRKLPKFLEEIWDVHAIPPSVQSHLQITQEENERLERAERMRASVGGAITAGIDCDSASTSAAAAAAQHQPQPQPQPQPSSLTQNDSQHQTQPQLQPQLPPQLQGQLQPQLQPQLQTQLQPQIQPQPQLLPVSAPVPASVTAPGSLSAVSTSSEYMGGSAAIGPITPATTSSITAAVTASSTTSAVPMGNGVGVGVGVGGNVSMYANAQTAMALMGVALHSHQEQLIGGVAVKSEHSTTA
T1 sequence (P28700 1-467 partner): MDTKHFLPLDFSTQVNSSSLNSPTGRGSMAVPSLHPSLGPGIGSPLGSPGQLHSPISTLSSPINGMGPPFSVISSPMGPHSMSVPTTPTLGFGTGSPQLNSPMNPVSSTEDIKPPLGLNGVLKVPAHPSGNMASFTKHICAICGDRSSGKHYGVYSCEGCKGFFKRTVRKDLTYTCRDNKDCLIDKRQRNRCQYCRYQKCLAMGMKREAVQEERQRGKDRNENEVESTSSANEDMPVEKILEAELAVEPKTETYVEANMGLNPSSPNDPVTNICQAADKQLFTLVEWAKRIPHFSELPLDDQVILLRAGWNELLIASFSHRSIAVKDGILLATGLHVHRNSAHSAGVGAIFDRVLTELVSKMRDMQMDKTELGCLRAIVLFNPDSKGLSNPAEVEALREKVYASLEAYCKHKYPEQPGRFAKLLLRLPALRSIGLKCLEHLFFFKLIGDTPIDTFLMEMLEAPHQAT
Test: VP16dEcR with RXR, (EcRE)5-ΔMTV reporter in CHO cells
Format: cell-based
Set-up: key to MurA (inducibility): (+) designates a change in transcriptional level that exceeds 2.5-fold; (++) indicates a response at a lower dosage than other EcR forms
Description: These experiments employed a mammalian cell culture system using Chinese hamster ovary cells (CHO) to evaluate the transcriptional function of Drosophila melanogaster EcR and USP using methods described previously (U.S. Patent Application Publication No: 2005/0049230; Henrich et al, 2003). Cells were seeded in 6-well polypropylene culture plates (Falcon) with 10^5 cells per well on the day prior to transfection. Transfection was subsequently performed using either calcium phosphate (Kitareewan et al., 1996, Mol. Biol. Cell, 7:1153-1196) or a GenePorter reagent (Gene Therapy Systems, Inc; San Diego, Calif.) following manufacturer's protocols. Each well received 1.25 μg of (EcRE)5-ΔMTV-CAT (five copies of the hsp27 EcRE inserted into an mouse mammary tumor virus (MTV) promoter upstream of the chloramphenicol acetyltransferase (CAT) gene) or (EcRE)5-ΔMTV-LUC (the same promoter attached to firefly luciferase), 1.25 μg of pCH111 (SV40 early promoter linked to the β-galactosidase gene) to normalize CAT activity, and 0.25 μg of each expression plasmid (EcR, FXR, RXR, USP) that was tested. The cells were incubated with plasmid DNA for seven hours and then washed with 1×PBS. Muristerone A (murA; Alexis Biochemicals) or 20-hydroxyecdysone (20E; Sigma) dissolved in ethanol to a concentration of 10 mM was diluted as necessary to the final assay concentration (FAC) in 2 ml of fresh incubation medium that was then applied to the cells. Similarly, JHIII (Sigma) was dissolved in dimethyl sulfoxide (DMSO) to a concentration of 80 μM and diluted into the incubation medium to its final assay concentration (20, 40, 80, 160 μM). […] A corresponding volume of ethanol and DMSO were added to control cells for all experiments. […] Both β-galactosidase and CAT reporter activity were measured based on previously used methods (Kitareewan et al, 1996). […]
Transcriptional activity, measured as ^14C-chloramphenicol counts (for measuring CAT activity) or relative luciferase activity (RLU) was quantified for each cell lysate. […]

CC(C)CC[C@@H](O)[C@](C)(O)[C@H]1CC[C@@]2(O)C3=CC(=O)[C@]4(O)C[C@@H](O)[C@@H](O)C[C@]4(C)[C@H]3[C@H](O)C[C@]12C [murA, muristerone A]
MurA (inducibility) (0.1 μM murA): ++

CC(C)(O)CC[C@@H](O)[C@](C)(O)[C@H]1CC[C@@]2(O)C3=CC(=O)[C@@H]4C[C@@H](O)[C@@H](O)C[C@]4(C)[C@H]3CC[C@]12C [20E, 20-hydroxyecdysone]
20E (inducibility) (10 μM 20E): + ((+) designates a change in transcriptional level that exceeds 2.5-fold)

COC(=O)/C=C(\C)CC/C=C(\C)CC[C@H]1OC1(C)C [JHIII, juvenile hormone III]
MurA + JHIII (JHIII potentiation) (0.1 μM murA + 80 μM JHIII): + ((+) indicates observed potentiation that exceeds 2-fold above the levels observed with ecdysteroid alone)
